Measurements from the NIST ThermoML archive (doi:10.1016/j.tca.2011.08.021).
Where “and” joins values, the source holds several entries; their conditions need not be identical. Identical values can stand only once.

Assays:
[1] = molar heat capacity at constant pressure; conditions: 101.33 kPa, Crystal, Small sample (50 mg) DSC
[2] = 393 K; 101.33 kPa; Crystal; X-ray diffraction

[Nd+3].[Nd+3].[O-2].[O-2].[O-2].[O-2].[O-2].[O-2].[O-2].[Zr+4].[Zr+4] [dineodymium(III) dizirconium(IV) oxide]
[1]
Conditions | molar heat capacity at constant pressure
293 K | 236.67 J/K/mol
303 K | 238.41 J/K/mol
313 K | 240.75 J/K/mol
573 K | 275.35 J/K/mol
623 K | 280.65 J/K/mol
673 K | 284.79 J/K/mol
723 K | 288.11 J/K/mol
773 K | 290.8 J/K/mol
823 K | 293.01 J/K/mol
873 K | 294.85 J/K/mol
923 K | 296.39 J/K/mol
973 K | 297.7 J/K/mol
1023 K | 298.83 J/K/mol
1073 K | 299.79 J/K/mol
1123 K | 300.63 J/K/mol and 302 J/K/mol
1173 K | 301.36 J/K/mol
1273 K | 302.57 J/K/mol
1323 K | 303.07 J/K/mol
1373 K | 303.52 J/K/mol

Conditions | mass density [kg/m3]
[2] | 6411
